Measurements from US20240293322A1, “SUSTAINED RELEASE FORMULATIONS COMPRISING A SELECTIVE ANDROGEN RECEPTOR MODULATOR” (University of Iowa Research Foundation, priority 2021, published 2024).
“Also recorded” adds a separate entry of the source.

Tests used:
[1] = system: acidic saline muscle pain model; assay: Acidic saline muscle pain (fibromyalgia) model, muscle withdrawal threshold (MWT); format: in vivo, C57BL/6J mice
Protocol: A SARM was tested its ability to alleviate pain using a model of fibromyalgia (Sluka et al., 2001). The model is induced by repeated injections of acidic saline into the gastrocnemius muscle, 5 days apart. After the second injection animals develop widespread pain behavior, termed hyperalgesia, that resolves in 4 weeks. Pain-behaviors are tested by using a device to apply deep pressure to the gastrocnemius muscle; withdrawal from this pressure is considered a pain-response.
Pain was induced using the model after which daily administration of SARMs or a vehicle was performed for 4 weeks. Withdrawal thresholds of the muscle were tested before and after induction of the model, and weekly after administration of the SARM. A decrease in withdrawal threshold is interpreted as increased pain sensitivity or hyperalgesia. […] Daily administration is clinically cumbersome and results in lower adherence to the treatment and so a long acting SARM containing microparticle formulation was developed to treat pain, e.g., chronic pain.
(§1) A decrease in MWT was interpreted as muscle hyperalgesia.
The SARM, (s)-3-(4-cyanophenoxy)-n-(4-cyano-3-(trifluoromethyl)phenyl)-2-hydroxy-2-methylpropanamide (Achemblock, San Francisco, CA, USA), was used in the following experiments. To test for the analgesic effects of SARM the acidic saline muscle pain model was induced and the presence of hyperalgesia 24 hours after model induction was confirmed. Animals then received daily subcutaneous injections of either SARM or vehicle for the next 4 weeks. For SARM administration, the drug was dissolved in dimethyl sulfoxide (DMSO; Fisher Scientific, Waltham, MA, USA) at a concentration of 50 mg/ml and then diluted in polyethylene glycol 300 (PEG300; Med Lab Supply, Pompano Beach, FL, USA) until a final solution of 10 mg/ml in 80:20 PEG300:DMSO was achieved. Animals were anesthetized with 2-4% isoflurane and SARM (25 mg/kg) or vehicle were delivered subcutaneously. This dose was chosen based on prior literature which found greatest effect at this dose (Gao et al., 2004). […]

[2] = system: acidic saline muscle pain model; assay: Acidic saline muscle pain model, paw allodynia by von Frey monofilament; format: in vivo, C57BL/6J mice; conditions: daily SARM 25 mg/kg s.c. for 4 weeks vs vehicle; ipsilateral and contralateral paw
From the text: as §1

[3] = system: C57BL/6J mice; assay: Rewarding behavior, condition place preference testing; format: in vivo; conditions: SARM 25 mg/kg s.c. daily for 5 days
From the text: To test if SARM produced rewarding behavior condition place preference testing was employed using a 9-day testing paradigm. The boxes used for testing were 27.5″ by 8.25″ divided into two 10.75″ by 8.25″ pairing chambers and a 4.75″ by 8.25″ middle chamber. The pairing chambers had different colored walls (solid black vs black and white stripe) and floor textures (smooth vs ridged). The middle chamber had solid black walls with smooth floors and was illuminated. Acclimation and baseline testing occurred over the first 3 days. Animals were placed in boxes with access to all 3 chambers for 15 minutes. On the third day, time spent in each box was recorded. Drug pairing then occurred for 5 days on days 4 through 8. Each day, animals were injected subcutaneously with SARM vehicle (80:20; PEG300:DMSO) and placed in a pairing chamber for 60 minutes. Animals were then returned to their home cages. Four hours later animals were subcutaneously injected with SARM (25 mg/kg) and were confined to the opposite pairing chamber for 60 minutes. Chamber pairings were counterbalanced amongst animals. Following pairing, on day 9, animals were placed in boxes with access to all 3 chambers for 15 minutes with time spent in each box recorded. In order to determine if rewarding behavior was present, the amount of time spent in SARM paired chambers was compared between baseline and post drug pairing.

C[C@](O)(COc1ccc(C#N)cc1)C(=O)Nc1ccc(C#N)c(C(F)(F)F)c1 [SARM, (s)-3-(4-cyanophenoxy)-n-(4-cyano-3-(trifluoromethyl)phenyl)-2-hydroxy-2-methylpropanamide]
effect on hyperalgesia in male versus female mice ([1]; Example 1): worked equally in male and female mice | withdrawal thresholds of the gastrocnemius muscle (pain thresholds, muscle hyperalgesia) ([1]; Example 1: daily administration of free SARM for 4 weeks vs vehicle, left and right muscle): higher pain thresholds than those receiving vehicle treatment; also recorded: reversed muscle hyperalgesia | muscle hyperalgesia measured via muscle withdrawal threshold (MWT) ([1]; daily SARM 25 mg/kg s.c. for 4 weeks vs vehicle, ipsilateral and contralateral limb): alleviated decreased MWT bilaterally in both sexes; also recorded: significant reversal in muscle hyperalgesia; also recorded: reversed muscle hyperalgesia | paw allodynia / paw hypersensitivity (von Frey number of responses) [2]: no effect on paw allodynia; also recorded: unable to alleviate paw hypersensitivity | preference for SARM paired chamber (reward like behavior) ([3]; baseline vs post drug pairing): did not show an increased preference for the SARM paired chamber; also recorded: no preference for the SARM paired chamber | time spent in SARM paired chamber, post drug pairing ([3]; baseline 380.3±51.0 sec, mean±SEM): 385.7 ± 37.1 s
